The record followed here is patent US20230115945A1, “AMINOPYRIMIDINE COMPOUNDS” (TYRA BIOSCIENCES, INC., priority 2019, published 2023).

Holding throughout (settings): 11-point 3-fold dilution, qPCR readout
In general terms: Quantitative PCR measures a nucleic acid by following its amplification.

The target in one assay is T1, FGFR3 (Homo sapiens, UniProt P22607).
T1 construct: made in house; host or cells: E. coli host derived from BL21, infected with T7 phage
Kind of assay: Kinase binding assay (Kd), FGFR3. How it is done: (§1) Kinase-tagged T7 phage strains were prepared in an E. coli host derived from the BL21 strain. E. coli were grown to log-phase and infected with T7 phage and incubated with shaking at 32° C. until lysis. The lysates were centrifuged and filtered to remove cell debris. Streptavidin-coated magnetic beads were treated with biotinylated small molecule ligands for 30 minutes at room temperature to generate affinity resins for kinase assays. The liganded beads were blocked with excess biotin and washed with blocking buffer SeaBlock (Pierce), 1% BSA, 0.05% Tween 20, 1 mM DTT to remove unbound ligand and to reduce non-specific binding. Binding reactions were assembled by combining kinases, liganded affinity beads, and test compounds in 1× binding buffer (20% SeaBlock, 0.17×PBS, 0.05% Tween 20, 6 mM DTT).
(§2) Test compounds were prepared as 111X stocks in 100% DMSO. Kds were determined using an 11-point 3-fold compound dilution series with three DMSO control points. All compounds for Kd measurements are distributed by acoustic transfer (non-contact dispensing) in 100% DMSO. The compounds were then diluted directly into the assays such that the final concentration of DMSO was 0.9%. All reactions performed in polypropylene 384-well plate. Each was a final volume of 0.02 ml. The assay plates were incubated at room temperature with shaking for 1 hour and the affinity beads were washed with wash buffer (lx PBS, 0.05% Tween 20). The beads were then re-suspended in elution buffer (lx PBS, 0.05% Tween 20, 0.5 μM non-biotinylated affinity ligand) and incubated at room temperature with shaking for 30 minutes. The kinase concentration in the eluates was measured by qPCR.
(§3) Binding constants were calculated with a standard dose-response curve using the Hill equation: […]
(§4) The Hill Slope was set to −1. Curves were fitted using a non-linear least square fit with the Levenberg-Marquardt algorithm.

A further assay has as its target T2, FGFR4 (Homo sapiens, UniProt P22455).
T2 construct: made in house; host or cells: E. coli host derived from BL21, infected with T7 phage
Kind of assay: Kinase binding assay (Kd), FGFR4. How it is done:
as §1, §2, §3, §4

Another assay addresses T3, FGFR3 (V555M) (Homo sapiens, UniProt P22607, V555M).
T3 construct: made in house; host or cells: E. coli host derived from BL21, infected with T7 phage
Kind of assay: Kinase binding assay (Kd), FGFR3 (V555M). As for the experimental part: as §1, §2, §3, §4

For a further assay, the target named is T4, FGFR1 (Homo sapiens, UniProt P11362).
T4 construct: made in house; host or cells: E. coli host derived from BL21, infected with T7 phage
T4 sequence (P11362 22-822): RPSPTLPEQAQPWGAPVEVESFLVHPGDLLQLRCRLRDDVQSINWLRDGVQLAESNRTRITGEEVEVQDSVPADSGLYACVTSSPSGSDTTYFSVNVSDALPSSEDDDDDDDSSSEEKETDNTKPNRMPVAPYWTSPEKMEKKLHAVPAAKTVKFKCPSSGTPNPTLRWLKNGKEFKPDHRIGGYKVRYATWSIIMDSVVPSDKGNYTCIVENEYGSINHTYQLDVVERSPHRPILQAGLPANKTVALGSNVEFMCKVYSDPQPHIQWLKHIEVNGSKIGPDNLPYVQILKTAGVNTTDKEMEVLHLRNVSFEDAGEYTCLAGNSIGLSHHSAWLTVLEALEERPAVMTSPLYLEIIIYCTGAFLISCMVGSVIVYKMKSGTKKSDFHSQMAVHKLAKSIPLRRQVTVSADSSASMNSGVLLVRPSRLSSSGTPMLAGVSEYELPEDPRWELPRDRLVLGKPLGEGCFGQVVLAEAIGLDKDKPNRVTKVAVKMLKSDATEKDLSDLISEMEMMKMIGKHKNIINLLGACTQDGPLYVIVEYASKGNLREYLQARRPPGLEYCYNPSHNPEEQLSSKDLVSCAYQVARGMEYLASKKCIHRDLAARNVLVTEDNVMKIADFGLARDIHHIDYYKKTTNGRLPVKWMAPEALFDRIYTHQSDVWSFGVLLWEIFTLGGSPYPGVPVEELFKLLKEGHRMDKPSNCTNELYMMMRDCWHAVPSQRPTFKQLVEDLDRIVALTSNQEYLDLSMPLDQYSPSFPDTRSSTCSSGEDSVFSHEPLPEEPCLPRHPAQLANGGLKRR
In words: Kinase binding assay (Kd), FGFR1. As for the experimental part:
as §1, §2, §3, §4

A further assay addresses T5, FGFR2 (Homo sapiens, UniProt P21802).
T5 construct: made in house; host or cells: E. coli host derived from BL21, infected with T7 phage
In words: Kinase binding assay (Kd), FGFR2. As for the experimental part: as §1, §2, §3, §4

T1 sequence (P22607 23-806): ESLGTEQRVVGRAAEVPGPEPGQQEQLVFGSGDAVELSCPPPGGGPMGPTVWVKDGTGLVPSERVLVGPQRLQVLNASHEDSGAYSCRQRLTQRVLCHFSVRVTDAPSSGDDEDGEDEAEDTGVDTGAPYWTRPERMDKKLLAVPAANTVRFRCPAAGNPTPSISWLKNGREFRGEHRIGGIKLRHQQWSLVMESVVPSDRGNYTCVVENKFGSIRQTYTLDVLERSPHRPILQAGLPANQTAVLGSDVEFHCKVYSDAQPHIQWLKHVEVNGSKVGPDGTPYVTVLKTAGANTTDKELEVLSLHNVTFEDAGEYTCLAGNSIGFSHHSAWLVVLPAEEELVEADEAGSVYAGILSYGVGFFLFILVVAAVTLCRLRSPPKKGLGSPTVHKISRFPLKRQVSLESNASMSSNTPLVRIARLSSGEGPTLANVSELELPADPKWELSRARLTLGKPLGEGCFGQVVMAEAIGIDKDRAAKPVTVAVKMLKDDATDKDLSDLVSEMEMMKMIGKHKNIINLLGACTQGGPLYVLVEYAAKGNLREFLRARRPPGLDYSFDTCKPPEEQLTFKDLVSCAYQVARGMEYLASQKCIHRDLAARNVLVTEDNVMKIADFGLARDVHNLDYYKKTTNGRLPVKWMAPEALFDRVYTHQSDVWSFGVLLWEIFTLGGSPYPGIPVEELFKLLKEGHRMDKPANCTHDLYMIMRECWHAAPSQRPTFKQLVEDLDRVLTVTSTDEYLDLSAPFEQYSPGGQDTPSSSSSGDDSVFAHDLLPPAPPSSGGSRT
T2 sequence (P22455 22-802): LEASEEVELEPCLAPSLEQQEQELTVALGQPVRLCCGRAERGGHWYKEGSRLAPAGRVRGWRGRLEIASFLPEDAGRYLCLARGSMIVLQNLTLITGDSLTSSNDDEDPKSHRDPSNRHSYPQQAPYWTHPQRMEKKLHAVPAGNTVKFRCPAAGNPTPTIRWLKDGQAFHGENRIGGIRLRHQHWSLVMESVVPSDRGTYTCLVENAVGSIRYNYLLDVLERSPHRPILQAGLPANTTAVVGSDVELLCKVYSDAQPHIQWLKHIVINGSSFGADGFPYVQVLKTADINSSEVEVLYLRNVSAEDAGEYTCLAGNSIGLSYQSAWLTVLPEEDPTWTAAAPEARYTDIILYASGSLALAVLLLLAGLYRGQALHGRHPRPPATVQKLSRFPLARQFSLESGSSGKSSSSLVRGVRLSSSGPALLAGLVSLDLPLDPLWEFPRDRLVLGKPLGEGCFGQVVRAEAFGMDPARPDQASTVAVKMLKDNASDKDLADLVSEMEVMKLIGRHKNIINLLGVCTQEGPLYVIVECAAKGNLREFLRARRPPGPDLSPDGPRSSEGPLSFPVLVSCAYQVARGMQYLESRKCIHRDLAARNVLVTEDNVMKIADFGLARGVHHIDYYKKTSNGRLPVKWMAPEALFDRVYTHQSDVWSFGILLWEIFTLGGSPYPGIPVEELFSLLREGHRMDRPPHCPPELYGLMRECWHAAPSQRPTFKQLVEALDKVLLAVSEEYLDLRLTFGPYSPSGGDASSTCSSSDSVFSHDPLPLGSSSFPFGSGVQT
T5 sequence (P21802 22-821): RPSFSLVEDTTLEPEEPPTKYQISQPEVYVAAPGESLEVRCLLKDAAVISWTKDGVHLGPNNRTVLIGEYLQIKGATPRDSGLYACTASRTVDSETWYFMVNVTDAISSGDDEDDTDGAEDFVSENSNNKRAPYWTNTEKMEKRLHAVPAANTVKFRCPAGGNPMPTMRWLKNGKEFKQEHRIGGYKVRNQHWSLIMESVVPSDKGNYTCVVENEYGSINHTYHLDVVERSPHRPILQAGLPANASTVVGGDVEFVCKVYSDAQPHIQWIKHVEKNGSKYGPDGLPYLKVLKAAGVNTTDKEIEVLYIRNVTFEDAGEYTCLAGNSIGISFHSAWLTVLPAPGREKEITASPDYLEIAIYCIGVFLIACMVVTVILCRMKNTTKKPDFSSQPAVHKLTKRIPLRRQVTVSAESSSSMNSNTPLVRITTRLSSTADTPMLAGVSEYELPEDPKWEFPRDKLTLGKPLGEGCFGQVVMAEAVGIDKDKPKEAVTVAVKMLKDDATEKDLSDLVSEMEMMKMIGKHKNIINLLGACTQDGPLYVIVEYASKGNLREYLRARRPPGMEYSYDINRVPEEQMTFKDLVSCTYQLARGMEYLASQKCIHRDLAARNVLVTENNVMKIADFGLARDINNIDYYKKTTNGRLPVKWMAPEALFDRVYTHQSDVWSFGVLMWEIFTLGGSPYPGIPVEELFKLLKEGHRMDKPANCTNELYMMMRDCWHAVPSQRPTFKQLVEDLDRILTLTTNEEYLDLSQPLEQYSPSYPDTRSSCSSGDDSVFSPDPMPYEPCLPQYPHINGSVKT
T3 sequence (P22607 23-806 V555M): as the sequence (P22607 23-806) above, with V533M counted along it

By Kd is commonly meant the constant that tells how readily two partners part at equilibrium. Lower therefore signals higher affinity. On to `CS(C)(=O)=Nc1ccc(Nc2nccc(-n3ccc4ccccc43)n2)cc1` [Example 13, N-[4-[[dimethyl(oxo)-λ^6-sulfanylidene]amino]phenyl]-4-indol-1-yl-pyrimidin-2-amine], for which the dissociation constant Kd at FGFR3 stood at 370 nM; at FGFR4, 57 nM; at FGFR3 (V555M) it was 57 nM; at FGFR1, 350 nM; on FGFR2, 3300 nM.

Take `C=CC(=O)Nc1cc(N=S(C)(C)=O)ccc1Nc1ncc(C)c(-c2c[nH]c3ccccc23)n1` [Example 20, N-[5-[[Dimethyl(oxo)-λ^6-sulfanylidene]amino]-2-[[4-(1H-indol-3-yl)-5-methyl-pyrimidin-2-yl]amino]phenyl]prop-2-enamide]: the dissociation constant (Kd) at FGFR3 was 27 nM; at FGFR4, 120 nM; on FGFR3 (V555M), 4 nM; at FGFR1, 37 nM; at FGFR2, 51 nM.

For the molecule `N=S(=O)(c1ccc(Nc2ncc(Cl)c(-c3c[nH]c4ccccc34)n2)cc1)C1CC1` (stereo not shown) [Example 47, 5-Chloro-N-[4-(cyclopropyl-sulfonimidoyl)phenyl]-4-(1H-indol-3-yl)pyrimidin-2-amine], the Kd amounted to 37 nM on FGFR3; 190 nM on FGFR4; 4 nM at FGFR3 (V555M); 18 nM on FGFR1; 16 nM at FGFR2.

On to `COc1ccc2c(-c3nc(Nc4ccc(N=S(C)(C)=O)cc4)ncc3C)c[nH]c2c1` [Example 30, N-[4-[[dimethyl(oxo)-λ^6-sulfanylidene]amino]phenyl]-4-(6-methoxy-1H-indol-3-yl)-5-methyl-pyrimidin-2-amine], for which the Kd was found to be 35 nM on FGFR3; 190 nM on FGFR4; 2 nM on FGFR3 (V555M); 27 nM at FGFR1; 41 nM at FGFR2.

For `CS(C)(=O)=Nc1cccc(Nc2ncc(Cl)c(-c3c[nH]c4ccccc34)n2)c1` [Example 7, 5-chloro-N-[3-[[dimethyl(oxo)-λ^6-sulfanylidene]amino]phenyl]-4-(1H-indol-3-yl)pyrimidin-2-amine], the Kd at FGFR3 worked out at 40 nM; at FGFR4, 280 nM; on FGFR3 (V555M) it was 4 nM; at FGFR1, 21 nM; on FGFR2 it was 140 nM.

For `COc1cc(N=S(C)(C)=O)ccc1Nc1ncc(Cl)c(-c2c[nH]c3ccccc23)n1` [Example 1, 5-chloro-N-[4-[[dimethyl(oxo)-λ^6-sulfanylidene]amino]-2-methoxy-phenyl]-4-(1H-indol-3-yl)pyrimidin-2-amine], the Kd at FGFR3 came to 170 nM; on FGFR4, 130 nM; on FGFR3 (V555M), 15 nM; on FGFR1, 140 nM; at FGFR2, 370 nM.

`CN=S(C)(=O)c1ccc(Nc2ncc(Cl)c(-c3c[nH]c4ccccc34)n2)c(OC)c1` (stereo not shown) [Example 37, 5-Chloro-N-[4-(N,S-dimethylsulfonimidoyl)-2-methoxy-phenyl]-4-(1H-indol-3-yl)pyrimidin-2-amine]: the Kd on FGFR3 was found to be 290 nM; on FGFR4 it was 120 nM; at FGFR3 (V555M), 28 nM; at FGFR1 it was 500 nM; on FGFR2, 1200 nM.

Regarding `Cc1ccc2c(-c3nc(Nc4ccc(N5CCS(=N)(=O)CC5)cc4)ncc3C)c[nH]c2c1` [Example 34, N-[4-(1-imino-1-oxo-1,4-thiazinan-4-yl)phenyl]-5-methyl-4-(6-methyl-1H-indol-3-yl)pyrimidin-2-amine], the Kd on FGFR3 was 30 nM; on FGFR4 it was 230 nM; on FGFR3 (V555M), 2 nM; on FGFR1, 14 nM; on FGFR2 it was 39 nM.

In the case of `Cc1cnc(Nc2ccc(N=S(C)(C)=O)cc2)nc1-n1ccc2ccccc21` [Example 14, N-[4-[[dimethyl(oxo)-λ^6-sulfanylidene]amino]phenyl]-4-indol-1-yl-5-methyl-pyrimidin-2-amine], the Kd on FGFR3 came to 170 nM; on FGFR4, 1500 nM; on FGFR3 (V555M) it was 9 nM; on FGFR1, 190 nM; at FGFR2, 110 nM.

`CS(C)(=O)=Nc1ccc(Nc2nccc(-c3c[nH]c4ccccc34)n2)cc1` [Example 10, N-[4-[[dimethyl(oxo)-λ^6-sulfanylidene]amino]phenyl]-4-(1H-indol-3-yl)pyrimidin-2-amine]: the Kd at FGFR3 was 370 nM; on FGFR4 it was 57 nM; on FGFR3 (V555M) it was 57 nM; at FGFR1, 350 nM; at FGFR2 it was 3300 nM.

For the molecule `C=CC(=O)Nc1ccc2c(ccn2-c2nc(Nc3ccc(N4CCS(=N)(=O)CC4)cc3)ncc2Cl)c1` [Example 72], the Kd on FGFR3 worked out at 17 nM; on FGFR4, 240 nM; at FGFR3 (V555M) it was 5.7 nM; at FGFR1, 77 nM; at FGFR2 it was 100 nM.

On to `N=S1(=O)CCN(c2ccc(Nc3ncc(F)c(-c4c[nH]c5ccccc45)n3)cc2)CC1` [Example 58, 5-Fluoro-N-[4-(1-imino-1-oxo-1,4-thiazinan-4-yl)phenyl]-4-(1H-indol-3-yl)pyrimidin-2-amine], for which the equilibrium dissociation constant (Kd) at FGFR3 was 15 nM; on FGFR4, 120 nM; on FGFR3 (V555M) it was 7 nM; on FGFR1, 11 nM; at FGFR2, 19 nM.

On FGFR3 (V555M), `C=CC(=O)Nc1cc(N=S(C)(C)=O)ccc1Nc1nccc(-n2ccc3ccccc32)n1` [Example 19, N-[5-[[dimethyl(oxo)-λ^6-sulfanylidene]amino]-2-[(4-indol-1-ylpyrimidin-2-yl)amino]phenyl]prop-2-enamide] showed a Kd of 3000 nM.

As to `C=CC(=O)Nc1ccc2c(ccn2-c2nc(Nc3ccc(S(C)(=N)=O)cc3OC)ncc2Cl)c1` (single isomer, unassigned) [Example 88, N-[1-[5-Chloro-2-[2-methoxy-4-(methylsulfonimidoyl)-anilino]-pyrimidin-4-yl]indol-5-yl]prop-2-enamide], the dissociation constant Kd on FGFR3 worked out at 8800 nM; on FGFR3 (V555M), 840 nM; on FGFR1, 20000 nM; at FGFR2, 26000 nM.

Take `CS(C)(=O)=Nc1ccc(Nc2nccc(-n3ccc4ccccc43)n2)c(N)c1` [Example 18, 4-[[dimethyl(oxo)-λ^6-sulfanylidene]amino]-N1-(4-indol-1-ylpyrimidin-2-yl)benzene-1,2-diamine]: the Kd came out at 20000 nM on FGFR3, 12000 nM at FGFR3 (V555M) and 21000 nM at FGFR2.

Regarding `CC(C)COc1cc(N=S(C)(C)=O)ccc1Nc1ncc(Cl)c(-c2c[nH]c3ccccc23)n1` [Example 4, 5-chloro-N-[4-[[dimethyl(oxo)-λ^6-sulfanylidene]amino]-2-isobutoxy-phenyl]-4-(1H-indol-3-yl)pyrimidin-2-amine], the Kd on FGFR4 was determined as 210 nM; on FGFR3 (V555M) it was 4100 nM; at FGFR1, 21000 nM.

As to `CS(C)(=O)=Nc1ccc(Nc2cc(-n3ccc4ccccc43)ncn2)cc1` [Example 15, N-[4-[[dimethyl(oxo)-λ^6-sulfanylidene]amino]phenyl]-6-indol-1-yl-pyrimidin-4-amine], the Kd at FGFR3 is 18000 nM; at FGFR3 (V555M), 3700 nM; at FGFR1, 29000 nM; at FGFR2, 14000 nM.

The molecule `CC(=O)c1cn(-c2nc(Nc3ccc(N=S(C)(C)=O)cc3)ncc2C)c2ccccc12` [Example 21, 1-[1-[2-[4-[[Dimethyl(oxo)-λ^6-sulfanylidene]amino]anilino]-5-methyl-pyrimidin-4-yl]indol-3-yl]ethanone] showed a Kd at FGFR3 of 27000 nM.
